Where two headings read alike, the source gives them in different places. *1 amine or outer side, *2 acyl side, *3 side chain or, on linkers, in order; H or OH if unused. Where a SMILES comes first, the peptide text is derived from it. Bridges are numbered along the chain shown (N, C = ends). Where no end group is shown, it is not given here. [ ]: non-standard residue; d: D form. X1 = O=C([C@@H]1CCN=C2C(N[*:1])=Cc3cc(O)c(O)cc3N21)[*:2]; X2 = O=CN(O)CCC[C@H](N[*:1])C(=O)[*:2]; Suc = O=C(CCC(=O)[*:2])[*:1]
Legend:
COX-2 = settings: cited from earlier work
Description: (§1) Aim: Neolignan 4’-O-methylhonokiol (MH) isolated from Magnolia grandiflora is known to have several biological activities, including anti-cancer, anti-inflammatory and anti-neurodegenerative effects. […] The development of COX-2 inhibitor radiolabeled analogs is of special interest for PET visualization of inflammation and tumors.

COX-1 = settings: cited from earlier work
Description: as §1

[1] = carrageenan-induced inflammation in mice; format: in vivo; settings: preliminary tests on mice with a carrageenan-induced inflammation
Description: as §1, with “tumors. […] The present study describes the radiolabeling procedure of [^11C]MPbP.” for “tumors.”

[2] = human, serum
Protocol: Protein binding, partition coefficient and stability values of ^68Ga-pyoverdine in human serum and in the excess of competing chelator and metal were determined.

RBCs = experiment: RBC radiolabelling; format: cell-based
[3] = test system: Her-2-positive (HCC1954) cell line; experiment: cell binding and internalisation, HCC1954; format: cell-based; settings: controls
Protocol: Radiopharmaceuticals (0.19 MBq/μg) were tested for their internalisation and effects on viability (dye exclusion) and clonogenicity of Her-2-positive (HCC1954) and –negative (MDA-MB-231) cell lines.

MDA-MB-231^+ = experiment: total cell bound tracer, MDA-MB-231+; settings: 1h incubation
Protocol: (§2) Total cell bound [^68Ga]1 and [^68Ga]2 over time (0-90 min) was determined according to previously published methods^1,2. FACS analysis with 3 was also performed on the following cell lines T47D^+ (PSMA^+), T47D^Mock (vector only), T47D (wild type).

PC-3^+ = experiment: total cell bound tracer, PC-3+; settings: 1h incubation
Protocol: as §2

T47D^+ = experiment: total cell bound tracer, T47D+; settings: 1h incubation
Protocol: as §2

LNCaP = experiment: total cell bound tracer, LNCaP; settings: 1h incubation
Protocol: as §2

cysteine challenge = format: physicochemical; settings: 100 fold molar excess, up to 2 hours
Protocol: Cysteine challenge (100 fold molar excess) was also performed.

MCF-7 cells = experiment: cellular uptake, internalization and membrane binding; format: cell-based
[4] = adult, 740 MBq; ref summary of products characteristics; cited from earlier work
AT1R = target: T1, AT1R (Homo sapiens, UniProt P30556); experiment: in vitro AT1R binding studies; format: cell-based; settings: MDA-MB-231 and CHO AT1R cells vs AT1R-negative CHO cells, 4 °C, one hour, with or without losartan potassium 100 μM
T1 construct: using AT1R-positive MDA-MB-231 breast cancer cells; endogenous in cells
T1 sequence (P30556 whole entry): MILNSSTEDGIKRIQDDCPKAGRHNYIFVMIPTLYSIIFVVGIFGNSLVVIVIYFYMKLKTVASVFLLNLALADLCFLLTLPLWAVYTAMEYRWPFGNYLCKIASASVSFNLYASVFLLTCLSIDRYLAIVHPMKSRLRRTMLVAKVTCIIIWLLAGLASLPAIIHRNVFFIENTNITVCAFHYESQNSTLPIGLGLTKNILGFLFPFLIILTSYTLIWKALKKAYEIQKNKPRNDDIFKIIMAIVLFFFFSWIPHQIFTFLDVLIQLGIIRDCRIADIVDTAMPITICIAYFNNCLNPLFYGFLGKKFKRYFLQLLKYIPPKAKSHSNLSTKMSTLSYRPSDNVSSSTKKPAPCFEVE
Protocol: Methods: ^19F-AmBF3-losartan was prepared via a copper-catalyzed alkyne-AmBF3 and azide-modified losartan cycloaddition at 45 °C for two hours, followed by semi-preparative HPLC purification. Then, ^19F-AmBF3-losartan (25 nmol, 15.3 μg) was radiolabeled with fluoride-18 (555-925 MBq) via an ^18F–^19F isotope exchange reaction in aqueous phase at 80 °C for 20 minutes and purified by solid phase extraction using a C18 Light Sep-Pak cartridge. In vitro AT1R binding studies were performed at 4 °C for one hour using AT1R-positive MDA-MB-231 breast cancer cells, AT1R-expressing CHO AT1R cells, and AT1R-negative CHO cells. The in vitro studies were conducted in presence or absence of the AT1R blocker losartan potassium (100 μM). AT1R expression in cells was confirmed by quantitative real-time reverse transcription polymerase chain reaction (RT-PCR).

[5] = logP of 68Ga-TAFC derivatives; format: physicochemical; settings: 68Ga-labelled
Protocol: Stability, protein binding and logP values were determined.

rhuPAR = target: T2, rhuPAR (human, UniProt Q03405 23-305); experiment: ELISA; competitive bioassay: rhuPAR immobilised; ligand 0-1000 uM in the presence of 0.1 nM monoclonal mouse IgG1 antibody (clone #62022, R&D Systems) against the uPA-binding pocket of uPAR; HRP-conjugated goat anti-mouse IgG1, chromogenic substrate, read at 450 nm; assay specific IC50; settings: both partners purified
T2 construct: Species read from the printed label 'rhuPAR' (recombinant human uPAR); also called membrane anchored receptor uPAR
T2 sequence (Q03405 23-305): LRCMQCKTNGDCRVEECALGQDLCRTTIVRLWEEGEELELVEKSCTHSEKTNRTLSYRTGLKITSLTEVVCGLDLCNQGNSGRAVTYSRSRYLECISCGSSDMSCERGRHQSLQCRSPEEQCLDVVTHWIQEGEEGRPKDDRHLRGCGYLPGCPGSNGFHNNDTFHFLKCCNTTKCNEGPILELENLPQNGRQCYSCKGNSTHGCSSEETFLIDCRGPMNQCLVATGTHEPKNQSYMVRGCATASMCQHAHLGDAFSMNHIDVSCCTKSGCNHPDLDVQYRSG

Molecule: C=CCc1ccc(O)c(-c2ccc(OC)c(CC=C)c2)c1 [MH, 4’-O-methylhonokiol]
- IC50 (COX-2): 0.062 µM
- IC50 (COX-1): 2.4 µM

Molecule: CCCc1ccc(O)c(-c2ccc(O[11CH3])cc2)c1 [MPbP, 4’-[^11C]methoxy-5-propyl-1,1’-biphenyl-2-ol]
- anti-inflammatory activity [1]: high anti-inflammatory activity comparable to that of specific COX-2 inhibitor celecoxib

Molecule: C[C@@H](O)[C@@H]1NC(=O)[C@H](CCCN(O)C=O)NC(=O)[C@@H](NC(=O)[C@H](CCCN(O)C=O)NC(=O)[C@@H](CO)NC(=O)[C@H](CCCNC(=N)N)NC(=O)[C@@H](CO)NC(=O)[C@@H]2CCN=C3C(NC(=O)CCC(=O)O)=Cc4cc(O)c(O)cc4N32)CCCCNC(=O)[C@H]([C@@H](C)O)NC1=O [^68Ga-pyoverdine, metal not drawn] (Suc-[X1][dS]R[dS][X2]K[X2]TT; lactam 6-C)
- fraction unbound [2]: > 0.97
- log p: -3.07 ± 0.08

Molecule: c1cnc2c([O][89Zr]([O]c3cccc4cccnc34)([O]c3cccc4cccnc34)[O]c3cccc4cccnc34)cccc2c1 [^89Zr-oxine]
- labelling efficiency of RBCs (RBCs): above 64.5%

Molecule: O=C([O-])CN1CCN(CC(=O)[O-])CCN(CC(=O)[O-])CCN(CC(=O)[O-])CC1.[111In+3] [^111In-DOTA]
- binding to HCC1954 cells [3]: did not bind

Molecule: H2N-(Ahx)-Lys-NH-CO-NH-Glu (PSMA-11) [[^68Ga]1]
- cell binding, % given radioactivity (MDA-MB-231^+): ~ 80%
- cell binding, times above control (MDA-MB-231^+; vs Mock or blocked controls): 100 x
- cell binding, % given radioactivity (PC-3^+): ~ 13%
- cell binding, times above control (PC-3^+; vs Mock or blocked controls): 10 x
- cell binding, % given radioactivity (T47D^+): ~ 2.5%
- cell binding, times above control (T47D^+; vs Mock or blocked controls): 4 x
- cell binding, % given radioactivity (LNCaP): ~ 66%

Molecule: MA-Cys-Tyr-Arg-Leu-Arg-BPA-Nle-Pro-Asn-Ile-OH [^99mTc labelled NPY1 short analogue, 99mTc 3+1 nitrido complex of MA-Cys-Tyr-Arg-Leu-Arg-BPA-Nle-Pro-Asn-Ile-OH]
- challenge with cysteine (cysteine challenge): no ligand exchange
- activity bound to the membrane (MCF-7 cells): 15.2%
- activity internalised (MCF-7 cells): 84.8%
- cellular uptake (MCF-7 cells; at 4 hours): 3.1±0.2

Molecule: ^99mTc-HYNIC-[D-Phe,Tyr-octreotide [^99mTc-Octreotide]
- effective dose [4]: 3.7 mSv

Molecule: ammoniumethyl-trifluoroborate-losartan [^18F-AmBF3-losartan]
- binding to AT1R-expressing cells (AT1R): specific binding

Molecule: triacetylfusarinine C [[^68Ga]TAFC]
- log p [5]: -2.1

B1: WX-360: cyclo^21,29[D-Cys^21]-uPA_(21-30)[S21C;H29C] (peptide, UniProt P00749 41-50, looked up)
peptide: [dC]NKYFSNICW
modifications: disulfide 1-9
notes: also called the original structure; source: synthetic peptide (synthesised on solid phase)
- binding result (rhuPAR): binds
